According to patent US6239171A, “Tocotrienols and tocotrienol-like compounds and methods for their use” (Lipogenics, Inc., priority 1998, dated 2001):
Where “and” joins values, the source holds several entries; their conditions need not be identical. Equal values may be shown once.

Key:
[1] = biological target: T1, Fatty Acid Synthase (Gallus gallus, UniProt P12276); assay: Fatty acid synthase activity in isolated chicken hepatocytes; format: cell-based
T1 construct: hepatocytes isolated from livers of 8-week old female chickens; endogenous in cells; host or cells: primary chicken hepatocytes
T1 sequence (P12276 2-2512 limits assumed): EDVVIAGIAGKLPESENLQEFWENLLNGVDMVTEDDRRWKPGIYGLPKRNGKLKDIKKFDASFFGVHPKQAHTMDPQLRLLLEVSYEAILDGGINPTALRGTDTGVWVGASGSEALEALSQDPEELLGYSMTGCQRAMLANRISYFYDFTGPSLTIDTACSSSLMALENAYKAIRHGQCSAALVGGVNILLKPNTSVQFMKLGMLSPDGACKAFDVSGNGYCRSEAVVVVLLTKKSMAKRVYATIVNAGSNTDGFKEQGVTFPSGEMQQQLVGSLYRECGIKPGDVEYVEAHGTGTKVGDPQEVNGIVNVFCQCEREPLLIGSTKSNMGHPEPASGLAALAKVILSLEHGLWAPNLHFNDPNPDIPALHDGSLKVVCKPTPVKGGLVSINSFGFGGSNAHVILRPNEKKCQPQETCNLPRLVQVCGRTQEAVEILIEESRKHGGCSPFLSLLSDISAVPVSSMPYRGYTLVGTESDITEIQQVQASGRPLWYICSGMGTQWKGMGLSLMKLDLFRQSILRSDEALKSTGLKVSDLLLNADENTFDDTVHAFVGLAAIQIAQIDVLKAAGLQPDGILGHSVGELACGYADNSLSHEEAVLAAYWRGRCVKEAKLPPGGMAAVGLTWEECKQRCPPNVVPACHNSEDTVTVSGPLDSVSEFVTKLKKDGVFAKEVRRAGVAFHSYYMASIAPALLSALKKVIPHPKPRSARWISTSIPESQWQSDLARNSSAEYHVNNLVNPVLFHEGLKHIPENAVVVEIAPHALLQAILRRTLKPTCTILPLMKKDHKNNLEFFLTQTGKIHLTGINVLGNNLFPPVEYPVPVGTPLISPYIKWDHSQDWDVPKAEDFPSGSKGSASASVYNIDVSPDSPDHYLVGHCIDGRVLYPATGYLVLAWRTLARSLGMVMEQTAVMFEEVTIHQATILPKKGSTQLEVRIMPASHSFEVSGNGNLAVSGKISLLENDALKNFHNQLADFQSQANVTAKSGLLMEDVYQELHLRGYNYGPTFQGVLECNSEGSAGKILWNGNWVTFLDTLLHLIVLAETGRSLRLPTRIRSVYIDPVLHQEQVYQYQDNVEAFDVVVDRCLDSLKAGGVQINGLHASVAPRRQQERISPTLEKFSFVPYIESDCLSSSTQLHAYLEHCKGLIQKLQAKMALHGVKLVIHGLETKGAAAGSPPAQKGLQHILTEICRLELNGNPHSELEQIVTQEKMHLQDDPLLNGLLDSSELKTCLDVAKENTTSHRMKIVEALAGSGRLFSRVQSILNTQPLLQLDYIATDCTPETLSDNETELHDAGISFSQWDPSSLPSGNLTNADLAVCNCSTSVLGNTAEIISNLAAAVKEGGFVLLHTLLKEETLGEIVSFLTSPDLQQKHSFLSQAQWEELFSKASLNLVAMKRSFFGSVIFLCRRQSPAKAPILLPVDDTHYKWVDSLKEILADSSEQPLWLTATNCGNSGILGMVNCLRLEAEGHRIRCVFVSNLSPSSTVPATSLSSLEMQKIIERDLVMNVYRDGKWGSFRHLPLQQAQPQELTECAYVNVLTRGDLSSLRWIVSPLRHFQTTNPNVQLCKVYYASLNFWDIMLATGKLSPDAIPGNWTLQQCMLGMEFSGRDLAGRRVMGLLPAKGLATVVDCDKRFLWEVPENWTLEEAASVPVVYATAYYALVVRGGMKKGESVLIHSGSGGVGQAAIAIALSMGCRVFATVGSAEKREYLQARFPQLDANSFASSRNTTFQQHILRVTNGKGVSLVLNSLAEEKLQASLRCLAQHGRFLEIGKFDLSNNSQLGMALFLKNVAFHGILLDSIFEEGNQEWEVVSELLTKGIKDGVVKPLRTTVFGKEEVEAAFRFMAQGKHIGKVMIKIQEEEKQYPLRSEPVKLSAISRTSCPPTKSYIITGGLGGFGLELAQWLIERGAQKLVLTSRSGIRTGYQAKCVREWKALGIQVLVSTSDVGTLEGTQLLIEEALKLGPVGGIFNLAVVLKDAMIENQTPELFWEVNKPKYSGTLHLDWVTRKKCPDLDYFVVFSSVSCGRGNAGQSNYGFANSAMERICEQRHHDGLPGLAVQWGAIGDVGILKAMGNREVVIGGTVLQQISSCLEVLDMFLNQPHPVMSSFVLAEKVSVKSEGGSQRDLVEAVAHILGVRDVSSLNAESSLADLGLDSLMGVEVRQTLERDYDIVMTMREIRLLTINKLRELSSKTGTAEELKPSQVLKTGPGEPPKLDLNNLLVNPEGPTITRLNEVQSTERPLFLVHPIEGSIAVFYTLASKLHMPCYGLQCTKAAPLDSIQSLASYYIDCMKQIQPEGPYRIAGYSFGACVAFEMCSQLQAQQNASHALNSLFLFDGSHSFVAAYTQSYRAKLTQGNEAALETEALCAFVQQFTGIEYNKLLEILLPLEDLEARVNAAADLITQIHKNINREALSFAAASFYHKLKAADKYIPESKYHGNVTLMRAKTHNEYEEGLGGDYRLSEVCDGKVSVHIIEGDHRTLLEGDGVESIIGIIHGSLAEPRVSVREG
Description: (§1) This study measured the effects of three tocotrienols isolated from rice bran on cholesterol-related enzyme activity in hepatocytes isolated from livers of 8-week old female chickens. The chickens were fed the chick mash diet for 8 weeks. They were then fasted for 40 hours and finally refed for 48 hours before sacrifice. The hepatocytes were then prepared following standard methods.
(§2) Each compound was isolated from TRF using the following protocol: A bond Elute amine column was equilibrated with 2 ml hexane. 10 mg of TRF (dissolved in 0.5 ml hexane) was bound to the amine column. The column was washed with 1 ml of hexane, then with 1 ml of 3% isopropanol in hexane. P-21 and P-25 were eluted off the column with 5% isopropanol in hexane. Then using 10% isopropanol in hexane, the impurity P-20 was eluted. α-tocotrienol was also tested.

[2] = tested on: cholesterol 7α-hydroxylase; assay: Cholesterol 7α-hydroxylase activity in isolated chicken hepatocytes; format: cell-based
Description: as §1, §2

[3] = tested on: hypercholesterolemic swine; assay: Body weight gain and feed conversion efficiency in hypercholesterolemic swine; format: in vivo; conditions: control diet + 50 ppm
Description: Each group of three 5-month old swine was administered either a control diet or a control diet supplemented with 50 ppm of TRF or 50 ppm of an individual tocotrienol. The samples were prepared as described in Example 11. After a 12 hour fast, serum and plasma samples were taken a 0 hrs, 21 days and 42 days from the start of the feeding period. After taking serum and plasma samples from the pigs at the end of the 42 day period, all of the swine were fasted for a total of 40 hours, followed by a 48 hour refeeding period. One swine from each group was sacrificed at that time and the liver, intestine, lung, heart, loin muscle, adipose tissue and ham muscle were removed.

[4] = biological target: T2, HMG-CoA reductase (Homo sapiens, UniProt P04035); assay: HMG-CoA reductase activity in isolated chicken hepatocytes; format: cell-based
T2 construct: hepatocytes isolated from livers of 8-week old female chickens; endogenous in cells; host or cells: primary chicken hepatocytes
T2 sequence (P04035 1-888): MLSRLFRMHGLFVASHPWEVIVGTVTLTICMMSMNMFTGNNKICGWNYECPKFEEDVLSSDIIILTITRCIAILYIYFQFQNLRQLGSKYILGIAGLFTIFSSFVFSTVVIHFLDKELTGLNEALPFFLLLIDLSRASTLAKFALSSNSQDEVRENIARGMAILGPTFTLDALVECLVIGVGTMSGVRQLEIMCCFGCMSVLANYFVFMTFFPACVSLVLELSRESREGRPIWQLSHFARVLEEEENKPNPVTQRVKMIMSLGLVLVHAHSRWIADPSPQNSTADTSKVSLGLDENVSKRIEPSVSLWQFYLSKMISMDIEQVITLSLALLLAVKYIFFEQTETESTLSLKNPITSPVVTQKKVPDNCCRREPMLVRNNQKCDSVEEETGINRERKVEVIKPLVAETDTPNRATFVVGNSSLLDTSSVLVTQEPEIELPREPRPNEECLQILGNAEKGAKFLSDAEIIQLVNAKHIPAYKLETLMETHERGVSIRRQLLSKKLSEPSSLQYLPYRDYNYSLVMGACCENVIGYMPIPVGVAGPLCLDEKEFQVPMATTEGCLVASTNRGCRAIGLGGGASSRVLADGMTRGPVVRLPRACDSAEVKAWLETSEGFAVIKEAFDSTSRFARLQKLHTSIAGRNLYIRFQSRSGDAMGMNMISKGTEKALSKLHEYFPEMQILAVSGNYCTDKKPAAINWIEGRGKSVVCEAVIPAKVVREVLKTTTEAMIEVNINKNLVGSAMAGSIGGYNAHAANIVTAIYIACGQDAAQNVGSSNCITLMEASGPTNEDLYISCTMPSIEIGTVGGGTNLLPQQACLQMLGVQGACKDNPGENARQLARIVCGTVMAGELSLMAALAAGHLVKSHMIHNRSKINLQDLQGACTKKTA
Description: as §1, §2
We next measured the effects of various tocotrienols and tocotrienol-like compounds isolated from rice bran on the activity of HMG-CoA reductase. 20.0 g of stabilized rice bran was extracted with 200.0 ml of methanol to remove various UV absorbing impurities and tocotrienols (6.7 mg total). This step was repeated four times. The remaining residue was dried under vacuum in a desiccator and then heated at 180° C. for 2 hours under 30 psi pressure. Then the dried residue was extracted again with 200.0 ml methanol (3.4 mg). […]

[5] = tested on: human peripheral blood neutrophils; assay: Release of superoxide in human peripheral blood neutrophils; format: cell-based; conditions: for 5×10^5 cells/hour, phorbol myrstate acetate
Text: We determined the effect of a known tocotrienol, γ-T3, on the release of superoxide in human peripheral blood neutrophils. Neutrophils are an extracellular source of oxygen free radicals. Once activated, these neutrophils can attach to endothelial tissue where they release a potent toxin, superoxide. Superoxide amplifies the inflammatory response and impairs local circulation of the blood.
The neutrophils we tested were isolated by density centrifugation on Ficoll-Hypaque gradients using conventional methods (see E. Serbinova et al., "Free Radical Recycling and Intramembrane Mobility in the Antioxidant Properties of α-Tocopherol and α-Tocotrienol", Free Rad. Bio. and Med., 10, pp. 263-75 (1991)). The neutrophils were then placed in a 96-well plate. γ-T3 and phorbol myrstate acetate were added to the wells at the same time. The secretion of superoxide anion was measured as the superoxide dismutase-inhibitable reduction of ferricytochrome C.

Row | Structure (SMILES) | Fatty Acid Synthase ([1]; 10.0 μg/mL) | Fatty Acid Synthase, percentage of 0.0 μg/mL ([1]; 10.0 μg/mL) | Fatty Acid Synthase ([1]; 20.0 μg/mL) | Fatty Acid Synthase, percentage of 0.0 μg/mL ([1]; 20.0 μg/mL) | Fatty Acid Synthase ([1]; 40.0 μg/mL) | Fatty Acid Synthase, percentage of 0.0 μg/mL ([1]; 40.0 μg/mL) | Fatty Acid Synthase ([1]; 80.0 μg/mL) | Fatty Acid Synthase, percentage of 0.0 μg/mL ([1]; 80.0 μg/mL) | Cholesterol 7α-hydroxylase ([2]; 10.0 μg/mL) | Cholesterol 7α-hydroxylase, percentage of 0.0 μg/mL ([2]; 10.0 μg/mL) | Cholesterol 7α-hydroxylase ([2]; 20.0 μg/mL) | Cholesterol 7α-hydroxylase, percentage of 0.0 μg/mL ([2]; 20.0 μg/mL) | Cholesterol 7α-hydroxylase ([2]; 40.0 μg/mL) | Cholesterol 7α-hydroxylase, percentage of 0.0 μg/mL ([2]; 40.0 μg/mL) | Cholesterol 7α-hydroxylase ([2]; 80.0 μg/mL) | Cholesterol 7α-hydroxylase, percentage of 0.0 μg/mL ([2]; 80.0 μg/mL) | increase of feed conversion efficiency [3] | maximum reduction in activity of HMG-CoA reductase [4] | amount of superoxide released (control 19.7 nmole) ([5]; concentration 10^-5) | amount of superoxide released (control 19.7 nmole) ([5]; concentration 10^-6)
1 | CC(C)=CCC/C(C)=C/CC/C(C)=C/CCC1(C)CCc2cc(O)ccc2O1 (stereo not shown) [P21, 3,4-dihydro-2-methyl-2-(4,8,12-trimethyltrideca-3' (E),7'(E),11'-trienyl)-2H-1-benzopyran-6-ol] | 14.3 nmol/min/mg | 83.1% | 12.7 nmol/min/mg | 73.8% | 11.8 nmol/min/mg | 68.6% | 10.2 nmol/min/mg | 59.3% | 2.41 pmol/min/mg | 104.3% | 3.40 pmol/min/mg | 103.9% | 2.39 pmol/min/mg | 103.5% | 1.37 pmol/min/mg | 102.6% | 7% |  |  | 
2 | CC(C)=CCC/C(C)=C/CC/C(C)=C/CCC1CCc2cc(O)ccc2O1 (stereo not shown) [P25, 3,4-dihydro-2-(4,8,12-trimethyltrideca-3'(E),7'(E),11'-trienyl)-2H-1-benzopyran-6-ol] | 16.2 nmol/min/mg | 94.2% | 14.3 nmol/min/mg | 83.1% | 12.7 nmol/min/mg | 73.8% | 12.1 nmol/min/mg | 70.3% | 2.33 pmol/min/mg | 100.9% | 2.37 pmol/min/mg | 102.61% | 2.44 pmol/min/mg | 105.6% | 2.37 pmol/min/mg | 102.6% | 10% | 46.6% and 58.6% |  | 
3 | CC(C)=CCC/C(C)=C/CC/C(C)=C/CCC1(C)CCc2cc(O)c(C)c(C)c2O1 (stereo not shown) [γ-T3, γ-tocotrienol, reference compound] |  |  |  |  |  |  |  |  |  |  |  |  |  |  |  |  |  |  | 0 nmol | 8.0 nmol
